Assay results from patent US20100215631A1, “ANTI-INFLAMMATORY COMPOSITION COMPRISING GLYCINE AND LACTOFERRIN AND THE USE THEREOF” (priority 2006, published 2010).

Experiments:
[1] = system: Balb/C mice; assay: Zymosan-induced ear swelling in an inflammatory mouse model (Example 1); format: in vivo; details: daily gavage 0.1 mg lactoferrin and/or 50 mg glycine, versus non-supplemented mice
Experimental: Balb/C mice (8 weeks of age, Charles River, Maastricht, The Netherlands) were randomly assigned two control and three test groups and supplemented daily for three days with 0.1 mg lactoferrin (DMV, Veghel, The Netherlands), 50 mg glycine (Sigma, Zwijndrecht, The Netherlands) or a combination of both components (test groups 3, 4 and 5 respectively) or vehicle (control groups 1 and 2) was administered by gavage. At day two of the supplementation ear thickness was measured using a micrometer (Mitutoyo Digimatic, Veenendaal, The Netherlands) Subsequently 25 μl 0.5% zymosan (Sigma) in PBS (group 2-5) or vehicle (group 1) was injected subcutaneously in both ears. Ear thickness was measured 3, 6 and 24 hours (example 1) after injection after which the animals were sacrificed.
In mice injected in the ear with zymosan, lactoferrin (LF) and glycine (Gly) supplemented mice show a highest decrease in ear swelling when compared to non-supplemented mice, see Table 1. A clear synergistic effect of LF and Gly is observed.

[2] = system: TNF-α producing cells; assay: Ex-vivo ELISpot of TNF-α producing spleen cells from supplemented mice with zymosan-induced ear inflammation (Example 2); format: in vivo; details: 1 μg/ml LPS, after three days of oral supplementation
Experimental: The spleen was removed and pushed through a cell strainer. Red blood cell lysis was performed in 5 ml of could lysis buffer (4.15 g NH4Cl, 0.5 g KHCO3 and 18.6 mg Na2EDTA in 1 liter water at pH 7,3) for 5 minutes. Cells were washed twice in could RPMI (Invitrogen, Merelbeke, Belgium) and after centrifugation diluted to a concentration of 1.10^7 cells/ml. TNF-α producing cells were detected by ELISpot assay in the absence or presence of 1 μg/ml lipopolysaccharide (Sigma) (example 2).
Spleen cells were collected from mice with a zymosan-induced inflammation in the ear after three days of oral supplementation with water (=control), lactoferrin (LF), glycine or a combination of LF and glycine. The number of TNF-α producing cells was determined using an ELISpot assay. LF and glycine inhibit the LPS stimulated number of TNF producing cells by 92% and 97% respectively (back to not zymosan treated control levels). The combination of glycine and lactoferrin inhibited the number of TNF-α positive cells 50% below the […] injected control. This unexpected high rate of inhibition makes the combination of glycine with lactoferrin an excellent choice for the treatment of inflammatory diseases.

In the case of `NCC(=O)O` [Glycine, glycine], the “Decrease in ear swelling” value ([1]; 3 hrs after zymosan injection in ears) was 10 ± 16, the “Decrease in ear swelling” value ([1]; 6 hrs after zymosan injection in ears) was 28 ± 20 and the “Inhibition of the LPS stimulated number of TNF producing cells” value [2] was 97%.
